# In patent publication US20230286995A1, “METABOLICALLY STABLE PYRIMIDINYL DIHYDROQUINOXALINONES AS TUBULIN POLYMERIZATION INHIBITORS” (UNIVERSITY OF TENNESSEE RESEARCH FOUNDATION, priority 2022, published 2023):
# Entries after “also recorded” stand apart in the source; their conditions may differ. Read-outs that look alike come from different tables or passages of the source.
# Key:
# [1] = test system: MDA-MB-453; test: Cytotoxicity assay (MTS, 72 h); format: cell-based, human; conditions: Homo sapiens, MDA-MB-453
# [2] = test system: A375/TxR; test: Cytotoxicity assay (MTS, 72 h); format: cell-based; conditions: Homo sapiens, read-out: IC50 ± SEM (nM) A375/TxR
# [3] = logP; format: physicochemical; conditions: Table 1; method not described
# [4] = test system: M14/LCC6MDR1; test: Cytotoxicity assay (MTS, 72 h); format: cell-based; conditions: Homo sapiens, read-out: IC50 ± SEM (nM) M14/LCC6MDR1
# [5] = test system: taxane-resistant melanoma, breast, and lung cancer cells; test: Cytotoxicity, regular and taxane-resistant lines of Table 2; format: cell-based; conditions: Homo sapiens
# [6] = test system: DU-145/VxR; test: Cytotoxicity assay (MTS, 72 h); format: cell-based; conditions: Homo sapiens, DU-145, read-out: IC50 ± SEM (nM) DU-145/VXR
# [7] = test system: human melanoma and breast cancer cell lines; test: Cytotoxicity, all tested cell lines of Table 1; format: cell-based; conditions: Homo sapiens, melanoma and breast lines of Table 1; read-out: IC50 values, range over all tested cell lines
# [8] = test system: A375/TxR cells; test: Clonogenic assay; format: cell-based, human; conditions: 7 days
# Procedure: In case of clonogenic assay, A375/TxR cells were seeded in 6-well plates at very low concentration (1000 cells/well). […] Medium was replaced with fresh drug once during the treatment. Cells were then fixed with cold methanol and stained with 0.5% crystal violet. Colony area density was quantified using the Keyence Hybrid Cell Count module.
# Cell proliferation inhibition assay: The cell proliferation inhibitory effects of tested compounds were first determined through MTS assay as previously described. In short, 3000 to 7500 cells were added to a 96-well cell culture plate followed by the treatment of the test compounds (0.1 nM to 3 μM) in quadruplicate after seeding and overnight incubation. After 72 hours of treatment, MTS (Promega) was added to the wells and the absorbance was measured at […] after incubating for 1.5 to 2 h. […] Briefly, A375/TxR cells (1000 cells/well) were treated with growth medium containing 0.5 nM, 1 nM, or 2 nM of 5v and incubated for over 7 days (the incubation medium was changed every 3 days). After fixing and staining with 0.5% crystal violet, the cell colonies were quantified by the Hybrid Counting module of the Keyence BZ-X700 microscope. The assay was performed in triplicate.
# [9] = test system: PANC-1; test: Cytotoxicity assay (MTS, 72 h); format: cell-based; conditions: Homo sapiens
# Procedure: Mia PaCa-2 and PANC-1 cells were seeded in 96-well plates at 4000 and 5000 cells per well, respectively.
# Cytotoxicity Assay. […] Each experiment consisted of four replicates.
# [10] = test system: MDA-MB-231; test: Cytotoxicity assay (MTS, 72 h); format: cell-based; conditions: Homo sapiens
# [11] = test system: RPMI-7951; test: Cytotoxicity assay (MTS, 72 h); format: cell-based; conditions: Homo sapiens, Table 1, read-out: IC50 (nM) Melanoma RPMI-7951
# [12] = test system: A375/TxR cells; test: Wound healing (scratch) assay; format: cell-based, human
# Procedure: Scratch-wound assay: The anti-migration effect of 5v was determined by a scratch-wound assay using an IncuCyte S3 live-cell imager as previously reported. After overnight incubation, the monolayers of A375/TxR cells were scratched by a WoundMaker (Essen BioScience) and the cells were treated with 5v (0.5 nM, 1 nM, 2 nM, and 5 nM) for 48 h. The wounds were imaged every 2 h by IncuCyte and the relative wound density was calculated by IncuCyte Scratch Wound Software Module. The assay was performed in quadruplicate.
# [13] = in vitro; conditions: mouse, liver microsomes
# [14] = test system: A375/TxR xenografts; test: In vivo A375/TxR melanoma xenograft model; set-up: species or system NSG mice; conditions: for decrease in tumor weight vs vehicle group / tumor reduction / tumor growth inhibition vs control: 2 times per week
# [15] = test system: M14; test: Cytotoxicity assay (MTS, 72 h); conditions: Homo sapiens
# [16] = Microsomal stability assay; conditions: Table 3; liver microsomes; mean (% CV)
# [17] = test system: MDA-MB-231/TxR; test: Cytotoxicity assay (MTS, 72 h); format: cell-based; conditions: Homo sapiens
# [18] = in vitro; conditions: human, liver microsomes
# [19] = test system: MDA-MB-468; test: Cytotoxicity assay (MTS, 72 h); format: cell-based, human; conditions: Homo sapiens, MDA-MB-468; Table 1; read-out: IC50 (nM) Breast MDA-MB-468
# [20] = test system: MDA-MB-231/VxR; test: Cytotoxicity assay (MTS, 72 h); format: cell-based; conditions: Homo sapiens
# [21] = test system: A2780/TxR ovarian cancer xenografts; test: Orthotopic A2780/TxR ovarian cancer xenograft model; conditions: 5m 1 mg/kg IV; Compound 17ya 20 mg/kg PO; 3 weeks
# [22] = test system: DU-145/VxR xenografts; set-up: species or system NSG mice; conditions: mouse, in vivo
# [23] = in vitro; conditions: rat, liver microsomes
# [24] = Table 1, read-out: IC50 (nM) Breast MDA-MB-453
# [25] = taxane-resistant melanoma, breast, and lung cancer cells, read-out: IC50 values, range against taxane-resistant cells
# [26] = MDA-MB-231, read-out: IC50 in MDA-MB-231 parental line
# [27] = MDA-MB-231, read-out: IC50 ± SEM (nM) MDA-MB-231, Table 2
# [28] = H&E and anti-human mitochondria IHC
# [29] = M14, read-out: IC50 (nM) Melanoma M14
# [30] = M14, read-out: IC50 ± SEM (nM) M14
# [31] = MDA-MB-231, read-out: IC50 ± SEM (nM) MDA-MB-231/VXR
smiles,measurement,setting,value
"CCNc1nc2c(c(N3CC(=O)Nc4cc(OC)ccc43)n1)CCC2 [Compound 5v, 4-(2-(ethylamino)-6,7-dihydro-5H-cyclopenta[d]pyrimidin-4-yl)-7-methoxy-3,4-dihydroquinoxalin-2(1H)-one]",IC50,[1]; [24],0.43 ± 0.1 nM
same,IC50,"[1]; Table 6, read-out: IC50 (nM) Breast Cancer MDA-MB-453",1.3 ± 0.5 nM
same,IC50,"[2]; Table 2, paclitaxel-resistant",0.3 ± 0.03 nM
same,logP,[3],2.39
same,IC50,"[4]; Table 2, multidrug-resistant",0.3 ± 0.03 nM
same,IC50,[5]; [25],0.3 to 5 nM
same,IC50,[6],1 ± 0.1 nM
same,IC50,[7],0.4 to 26 nM
same,colony formation of A375/TxR cells,[8],inhibit the proliferation of A375/TxR cell colonies in a concentration-dependent manner
same,IC50,"[9]; Table 6, read-out: IC50 (nM) Pancreatic cancer PANC-1",3.7 ± 0.7 nM
same,IC50,"[10]; MDA-MB-231, read-out: IC50 (nM) Breast Cancer MDA-MB-231, Table 6",2.6 ± 0.5 nM
same,IC50,"[10]; MDA-MB-231, read-out: IC50 (nM) Breast MDA-MB-231, Table 1",0.7 ± 0.1 nM
same,IC50,[10]; [26],1 to 2.2 nM
same,IC50,[10]; [27],1 ± 0.2 nM
same,IC50,[11],0.5 ± 0.1 nM
same,migration of A375/TxR cells,[12],remarkable potency in inhibiting the cell migration of A375/TxR cells
same,half-life at 1 μg/mL,[13],6.33 min
same,microsomal CLint at 1 μg/mL,[13],109 µL/min/mg
same,decrease in tumor weight vs vehicle group,[14]; 2 mg/kg IV,47.4%
same,tumor reduction / tumor growth inhibition vs control,[14]; 2 mg/kg IV,62.3%
same,"toxicity to major organs (heart, kidney, spleen), H&E","[14]; 2 mg/kg or 4 mg/kg, three weeks",no obvious damage to the major organs; also recorded: no toxicity to major organs
same,"cleaved caspase-3 in tumors, IHC","[14]; 2 mg/kg, 4 mg/kg",significantly increased the proportion of cleaved caspase-3 positive cells
same,decrease in tumor weight vs vehicle group,[14]; 4 mg/kg IV,59.9%
same,tumor reduction / tumor growth inhibition vs control,[14]; 4 mg/kg IV,76.6%
same,"Ki67 and CD31 expression in tumors, IHC",[14]; 2 and 4 mg/kg,significantly decreased
same,spontaneous liver metastasis,[14]; [28],significant inhibition of lung or liver metastasis
same,spontaneous lung metastasis,[14]; [28],significant inhibition of lung or liver metastasis
same,mouse body weight during therapy,[14]; all doses tested,no body weight loss observed
same,"tumor necrosis, H&E","[14]; mouse, in vivo",more necrotic cells in 5v-treated tumors
same,IC50,"[15]; M14, read-out: IC50 (nM) Melanoma Cancer M14",1.5 ± 0.3 nM
same,IC50,[15]; [29],0.6 ± 0.1 nM
same,IC50,[15]; [30],0.3 ± 0.04 nM
same,Metabolic stability in rat t1/2,[16],3.6 min
same,IC50,"[17]; read-out: IC50 ± SEM (nM) MDA-MB-231/TxR, Table 2, paclitaxel-resistant",0.6 ± 0.1 nM
same,half-life at 1 μg/mL,[18],24.7 min
same,microsomal CLint at 1 μg/mL,[18],28.1 µL/min/mg
same,IC50,[19],0.8 ± 0.1 nM
same,IC50,[20]; [31],1.2 ± 0.3 nM
"COc1ccc2c(c1)NC(=O)CN2c1nc(C)nc2c1CCC2 [Compound 5m, 7-methoxy-4-(2-methyl-6,7-dihydro-5H-cyclopenta[d]pyrimidin-4-yl)-3,4-dihydroquinoxalin-2(1H)-one]",IC50,[1]; [24],0.5 ± 0.1 nM
same,IC50,[2],1.1 nM
same,logP,[3],2.96
same,IC50,[4],1.4 ± 0.3 nM
same,IC50,"[5]; melanoma, breast and lung cancer cell lines, read-out: IC50 values, range against regular and paclitaxel-resistant lines",1 to 5 nM
same,IC50,[5]; [25],0.3 to 5 nM
same,IC50,[6],3.7 ± 0.6 nM
same,IC50,[7],0.4 to 26 nM
same,colony formation of A375/TxR cells,[8],"completely inhibited the colony formation at high dose, i.e., 2 nM"
same,IC50,"[9]; Example 7, FIG. 20, read-out: calculated IC50, PANC-1 cells",2.7 nM
same,mice having visible tumor,[21],1 of 5
same,IC50,[10]; [26],1 to 2.2 nM
same,IC50,[10]; [27],1.7 ± 0.4 nM
same,IC50,[11],1.5 ± 0.4 nM
same,migration of A375/TxR cells,[12],markedly inhibited the migration of A375/TxR cells
same,endpoint average tumor volume,[22],~80 mm^3
same,CLint scaled at 1 μg/mL,[13],48 mL/min/kg
same,decrease of final tumor volume vs vehicle,"[14]; 2.5 mg/kg IV, 7 doses within 24 days",64.6%
same,CLint scaled at 1 μg/mL,[23],86.9 mL/min/kg
same,IC50,[15]; [29],1.4 ± 0.4 nM
same,IC50,[15]; [30],1.3 ± 0.2 nM
same,Metabolic stability in rat t1/2,[16],8.0 min
same,Metabolic stability in rat t1/2 (min),[16],7.97 (0.7) min
same,IC50,[17]; read-out: IC50 ± SEM (nM) MDA-MB-231/TxR,1.5 ± 0.3 nM
same,CLint scaled at 1 μg/mL,[18],13 mL/min/kg
same,IC50,[19],1.8 ± 0.4 nM
same,IC50,"[20]; MDA-MB-231, 72 h, read-out: IC50 in Compound 17ya resistant MDA-MD-231/VxR cells",1.2 to 2.9 nM
same,IC50,[20]; [31],2.3 ± 0.4 nM
